From patent publication US20200291086A1, “BIOREVERSABLE PROMOIETIES FOR NITROGEN-CONTAINING AND HYDROXYL-CONTAINING DRUGS” (priority 2013, published 2020)
Numbered stars: 1 amine (or outer) side, 2 acyl side, 3 side chain; on linkers, the order of the positions; unused ones are H or OH. Square brackets hold non-standard residues; d marks the D form. Peptide text beside a SMILES is read from it. * marks the point of attachment. X13 = CCCCCCCCCC(=O)Nc1ccc2c(c1)CN([*:1])[C@H](C(=O)[*:2])C2; Phenylacetic(2-CH2NH2) = O=C(Cc1ccccc1CN[*:1])[*:2]; 2(aminomethyl)benzoyl = O=C(c1ccccc1CN[*:1])[*:2]; X6 = CCCCCCCCCC(=O)NCCCNC(=O)c1ccc(C(=O)*)c(CN)c1; X2 = O=C([C@@H]1Cc2ccccc2N1[*:1])[*:2]; X9 = NCCS(=O)(=O)c1ccc(C(=O)*)c(CN)c1; Tiq1c(1S) = O=C(O)[C@H]1NCCc2ccccc21; X11 = NCCCNC(=O)c1ccc(C(=O)*)c(CN)c1; Tic = O=C(O)[C@@H]1Cc2ccccc2CN1; dTic = O=C(O)[C@H]1Cc2ccccc2CN1; X12 = Cc1cc(N)cc(C(=O)*)c1CN; X5 = Cc1cc(CN)cc(CN)c1C(=O)*; Decanoyl = CCCCCCCCCC(=O)*; X1 = O=C(O)Cc1ccccc1C(=O)*; X4 = NCc1ncccc1C(=O)*; X7 = NCc1cccnc1C(=O)*

Experiment: Determination of half life in PBS: cleavage of promoieties from capped model peptides
Assay type: physicochemical
Settings: PBS (phosphate-buffered saline), pH 4; read-out: t 1/2 (h), cleavage of promoiety linked to N terminus of model peptide X-[…] (converted)
Method: Determination Of half Life in PBS
Polypeptides GIVEQAA-NH2 (SEQ ID NO: 57) and […] (SEQ ID NO: 58), two mimics of the N-terminus section of insulin A chain, were used as model peptides to determine the half lives of various promoieties linked to the N-terminus of the peptides through an amide bond. The model peptides were prepared with Fmoc chemistry, cleaved by TFA and purified by preparative RP-HPLC.
The promoiety capped model peptide was dissolved at 1 mg/mL concentration in PBS and the solution was incubated at 37° C. in a water bath. Samples were collected for analysis at different time points (e.g., 8 h, 16 h, 24 h, 48 h, 72 h, 96 h, 120 h). […] The promoiety cleavage was quenched by lowering pH to 2 by addition of 0.1% TFA solution. RP-HPLC was used to monitor the cleavage reactions and the cleavage rates were quantitatively studied by measuring the peak areas of the promoiety capped and released model peptides. Agilent 6110 Quadrupole LC-MS was employed to verify the change of mass in the course of reaction.
The RP-HPLC analysis was performed using a Shimadzu LC-2010A HT system and a 150 mm×4.6 mm Zorbax 300SB-C18 column. The flow rate was 1 ml/min. Solvent A contained 0.1% TFA/5% CH3CN in deionized water, and solvent B contained 0.1% TFA in 100% CH3CN. A linear gradient was employed (e.g., 10-70% B in 10 minutes).
The rate of cleavage was determined for the respective promoiety capped model peptides. The concentrations of the promoiety capped model peptides and the released model peptides were determined by their respective peak areas. The first order dissociation rate constant of a promoiety capped model peptide was determined by plotting the logarithm of [starting promoiety capped model peptide]/[remaining promoiety capped model peptide] at various time intervals. The half life for cleavage of a promoiety capped model peptide was calculated by using the equation and the slope derived from this plot.
The cleavage half lives of various promoieties linked to the model peptides were determined using the procedures described above.
For `CC[C@H](C)[C@H](NC(=O)CNC(=O)c1ccccc1CC(=O)O)C(=O)N[C@H](C(=O)N[C@@H](CCC(=O)O)C(=O)N[C@@H](CCC(N)=O)C(=O)N[C@@H](C)C(=O)N[C@@H](C)C(=O)N[C@@H](Cc1ccc(O)cc1)C(=O)O)C(C)C` [drawing 171] (X1-GIVEQAAY-OH; C-terminus assumed), the half-life at 1 mg/mL was 6.2 h.

Same assay, conditions: PBS, 37° C., 1 mg/mL, RP-HPLC
For “SEQ ID NO: 60 (GIVEQAAY; N-term may be promoiety modified)”, the “t 1/2 (h), cleavage of promoiety linked to N terminus of model peptide X-GIVEQAAY” value was 72.6 h.

Same assay, conditions: PBS, 37° C., 1 mg/mL, RP-HPLC; read-out: t 1/2 (h), cleavage of promoiety linked to N terminus of model peptide X-GIVEQAA (converted)
`CCCCCCCCCC(=O)Nc1ccc2c(c1)CN(C(=O)[C@H](C)N)[C@H](C(=O)NCC(=O)N[C@H](C(=O)N[C@H](C(=O)N[C@@H](CCC(=O)O)C(=O)N[C@@H](CCC(N)=O)C(=O)N[C@@H](C)C(=O)N[C@@H](C)C(=O)O)C(C)C)[C@@H](C)CC)C2` (H-A[X13]GIVEQAA-OH) gave a half-life at 1 mg/mL of 38.9 h. For `CC[C@H](C)[C@H](NC(=O)CNC(=O)c1c(C)cc(CN)cc1CN)C(=O)N[C@H](C(=O)N[C@@H](CCC(=O)O)C(=O)N[C@@H](CCC(N)=O)C(=O)N[C@@H](C)C(=O)N[C@@H](C)C(=O)O)C(C)C` (X5-GIVEQAA-OH; N-terminus and C-terminus assumed), the half-life at 1 mg/mL was 300 h. Compound `CC[C@H](C)[C@H](NC(=O)CNC(=O)c1ccc(S(=O)(=O)CCN)cc1CN)C(=O)N[C@H](C(=O)N[C@@H](CCC(=O)O)C(=O)N[C@@H](CCC(N)=O)C(=O)N[C@@H](C)C(=O)N[C@@H](C)C(=O)O)C(C)C` (X9-GIVEQAA-OH) has a half-life at 1 mg/mL of 28.1 h. Work on `CC[C@H](C)[C@H](NC(=O)CNC(=O)c1cc(N)cc(C)c1CN)C(=O)N[C@H](C(=O)N[C@@H](CCC(=O)O)C(=O)N[C@@H](CCC(N)=O)C(=O)N[C@@H](C)C(=O)N[C@@H](C)C(=O)O)C(C)C` (X12-GIVEQAA-OH; N-terminus and C-terminus assumed) yielded a half-life at 1 mg/mL of 85 h.

Same assay, conditions: PBS, 37° C., 1 mg/mL, RP-HPLC; read-out: t 1/2 (h), cleavage of promoiety linked to N terminus of model peptide X-[…] (converted)
With `N[C@@H](CCCCNC(=O)OCC1c2ccccc2-c2ccccc21)c1nncn1[C@@H](CO)C(=O)O` the half-life at 1 mg/mL was 79.7 h. With `N[C@@H](CO)c1nncn1[C@@H](CCCCNC(=O)OCC1c2ccccc2-c2ccccc21)C(=O)O` the half-life at 1 mg/mL was 193 h. Compound `CCCCCCCCCC(=O)NCCCC[C@H](N)C(=O)N1CCc2ccccc2[C@H]1C(=O)NCC(=O)N[C@H](C(=O)N[C@H](C(=O)N[C@@H](CCC(=O)O)C(=O)N[C@@H](CCC(N)=O)C(=O)N[C@@H](C)C(=O)N[C@@H](C)C(=O)N[C@@H](Cc1ccc(O)cc1)C(=O)O)C(C)C)[C@@H](C)CC` (H-K(Decanoyl)[Tiq1c(1S)]GIVEQAAY-OH) has a half-life at 1 mg/mL of 262 h. `CC[C@H](C)[C@H](NC(=O)CNC(=O)c1cccnc1CN)C(=O)N[C@H](C(=O)N[C@@H](CCC(=O)O)C(=O)N[C@@H](CCC(N)=O)C(=O)N[C@@H](C)C(=O)N[C@@H](C)C(=O)N[C@@H](Cc1ccc(O)cc1)C(=O)O)C(C)C` (X4-GIVEQAAY-OH; C-terminus assumed) showed a half-life at 1 mg/mL of 458 h. Work on `CCCCCCCCCC(=O)NCCCNC(=O)c1ccc(C(=O)NCC(=O)N[C@H](C(=O)N[C@H](C(=O)N[C@@H](CCC(=O)O)C(=O)N[C@@H](CCC(N)=O)C(=O)N[C@@H](C)C(=O)N[C@@H](C)C(=O)N[C@@H](Cc2ccc(O)cc2)C(=O)O)C(C)C)[C@@H](C)CC)c(CN)c1` (X6-GIVEQAAY-OH) yielded a half-life at 1 mg/mL of 181 h. For `CC[C@H](C)[C@H](NC(=O)CNC(=O)c1ncccc1CN)C(=O)N[C@H](C(=O)N[C@@H](CCC(=O)O)C(=O)N[C@@H](CCC(N)=O)C(=O)N[C@@H](C)C(=O)N[C@@H](C)C(=O)N[C@@H](Cc1ccc(O)cc1)C(=O)O)C(C)C` (X7-GIVEQAAY-OH; C-terminus assumed), the half-life at 1 mg/mL was 597 h. `CC[C@H](C)[C@H](NC(=O)CNC(=O)c1ccc(C(=O)NCCCN)cc1CN)C(=O)N[C@H](C(=O)N[C@@H](CCC(=O)O)C(=O)N[C@@H](CCC(N)=O)C(=O)N[C@@H](C)C(=O)N[C@@H](C)C(=O)N[C@@H](Cc1ccc(O)cc1)C(=O)O)C(C)C` (X11-GIVEQAAY-OH) showed a half-life at 1 mg/mL of 112 h. For `CC[C@H](C)[C@H](NC(=O)CNC(=O)c1ccccc1CN)C(=O)N[C@H](C(=O)N[C@@H](CCC(=O)O)C(=O)N[C@@H](CCC(N)=O)C(=O)N[C@@H](C)C(=O)N[C@@H](C)C(=O)N[C@@H](Cc1ccc(O)cc1)C(=O)O)C(C)C` ({2(aminomethyl)benzoyl}-GIVEQAAY-OH; C-terminus assumed), the half-life at 1 mg/mL was 1030 h. In the case of `CC[C@H](C)[C@H](NC(=O)CNC(=O)Cc1ccccc1CN)C(=O)N[C@H](C(=O)N[C@@H](CCC(=O)O)C(=O)N[C@@H](CCC(N)=O)C(=O)N[C@@H](C)C(=O)N[C@@H](C)C(=O)N[C@@H](Cc1ccc(O)cc1)C(=O)O)C(C)C` ({Phenylacetic(2-CH2NH2)}-GIVEQAAY-OH; C-terminus assumed), the half-life at 1 mg/mL is reported as 482 h. `CC[C@H](C)[C@H](NC(=O)CNC(=O)[C@@H]1Cc2ccccc2N1C(=O)[C@H](C)N)C(=O)N[C@H](C(=O)N[C@@H](CCC(=O)O)C(=O)N[C@@H](CCC(N)=O)C(=O)N[C@@H](C)C(=O)N[C@@H](C)C(=O)N[C@@H](Cc1ccc(O)cc1)C(=O)O)C(C)C` [NH2-Ala-Indo2CA] (H-A[X2]GIVEQAAY-OH; C-terminus assumed) showed a half-life at 1 mg/mL of 3.4 h. For `CC[C@H](C)[C@H](NC(=O)CNC(=O)[C@@H]1Cc2ccccc2CN1C(=O)[C@H](C)N)C(=O)N[C@H](C(=O)N[C@@H](CCC(=O)O)C(=O)N[C@@H](CCC(N)=O)C(=O)N[C@@H](C)C(=O)N[C@@H](C)C(=O)N[C@@H](Cc1ccc(O)cc1)C(=O)O)C(C)C` [NH2-Ala-Tic] (H-A[Tic]GIVEQAAY-OH; C-terminus assumed), the half-life at 1 mg/mL was 58.9 h. With `CCCCCCCCCC(=O)NCCCC[C@H](N)C(=O)N1c2ccccc2C[C@H]1C(=O)NCC(=O)N[C@H](C(=O)N[C@H](C(=O)N[C@@H](CCC(=O)O)C(=O)N[C@@H](CCC(N)=O)C(=O)N[C@@H](C)C(=O)N[C@@H](C)C(=O)N[C@@H](Cc1ccc(O)cc1)C(=O)O)C(C)C)[C@@H](C)CC` [NH2-K(C10)-Indo2CA] (H-K(Decanoyl)[X2]GIVEQAAY-OH; C-terminus assumed) the half-life at 1 mg/mL was 6 h. `CCCCCCCCCC(=O)NCCCC[C@H](N)C(=O)N1Cc2ccccc2C[C@H]1C(=O)NCC(=O)N[C@H](C(=O)N[C@H](C(=O)N[C@@H](CCC(=O)O)C(=O)N[C@@H](CCC(N)=O)C(=O)N[C@@H](C)C(=O)N[C@@H](C)C(=O)N[C@@H](Cc1ccc(O)cc1)C(=O)O)C(C)C)[C@@H](C)CC` [NH2-K(C10)-Tic] (H-K(Decanoyl)[Tic]GIVEQAAY-OH; C-terminus assumed) gave a half-life at 1 mg/mL of 46.9 h. For `CC[C@H](C)[C@H](NC(=O)CNC(=O)[C@@H]1Cc2ccccc2N1C(=O)[C@@H](N)Cc1ccccc1)C(=O)N[C@H](C(=O)N[C@@H](CCC(=O)O)C(=O)N[C@@H](CCC(N)=O)C(=O)N[C@@H](C)C(=O)N[C@@H](C)C(=O)N[C@@H](Cc1ccc(O)cc1)C(=O)O)C(C)C` [NH2-Phe-Indo2CA] (H-F[X2]GIVEQAAY-OH; C-terminus assumed), the half-life at 1 mg/mL was 9.7 h. For `CC[C@H](C)[C@H](NC(=O)CNC(=O)[C@@H]1Cc2ccccc2N1C(=O)[C@@H](N)C(C)C)C(=O)N[C@H](C(=O)N[C@@H](CCC(=O)O)C(=O)N[C@@H](CCC(N)=O)C(=O)N[C@@H](C)C(=O)N[C@@H](C)C(=O)N[C@@H](Cc1ccc(O)cc1)C(=O)O)C(C)C` [NH2-Val-Indo2CA] (H-V[X2]GIVEQAAY-OH; C-terminus assumed), the half-life at 1 mg/mL was 13 h. `CCCCCCCCCC(=O)NCCCC[C@@H](N)C(=O)N1Cc2ccccc2C[C@@H]1C(=O)NCC(=O)N[C@H](C(=O)N[C@H](C(=O)N[C@@H](CCC(=O)O)C(=O)N[C@@H](CCC(N)=O)C(=O)N[C@@H](C)C(=O)N[C@@H](C)C(=O)N[C@@H](Cc1ccc(O)cc1)C(=O)O)C(C)C)[C@@H](C)CC` [NH2-dK(C10)-dTic] (H-[dK](Decanoyl)[dTic]GIVEQAAY-OH; C-terminus assumed) showed a half-life at 1 mg/mL of 50.6 h. With `CC[C@H](C)[C@H](NC(=O)CNC(=O)c1ccccc1CC(=O)O)C(=O)N[C@H](C(=O)N[C@@H](CCC(=O)O)C(=O)N[C@@H](CCC(N)=O)C(=O)N[C@@H](C)C(=O)N[C@@H](C)C(=O)N[C@@H](Cc1ccc(O)cc1)C(=O)O)C(C)C` [drawing 173] (X1-GIVEQAAY-OH; C-terminus assumed) the half-life at 1 mg/mL was 183 h.

Same assay, conditions: compound drawn; stated after the PBS tables; read-out: Half life for cleavage (converted)
Compound `Cc1cc(C(=O)O)cc(CN)c1C(=O)NCCc1ccc(N)cc1` has a half-life at 1 mg/mL of 779 h.
